Data from patent US8592448B2 (OSI Pharmaceuticals, LLC, priority 2008, dated 2013).
Like-named read-outs stand apart in the source and are kept apart here.

How the values were obtained:
phosphorylated c-MET = target: T1, phosphorylated c-MET (Homo sapiens, UniProt P08581); assay: c-MET cell mechanistic assay (phosphorylated c-MET in MKN45 cells); format: cell-based; details: MKN45 cell line, four hours incubation, phosphorylated c-MET levels, at least duplicate experiments; read-out: Met mech IC50
T1 construct: endogenous in cells; host or cells: MKN45
Outline: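 MKN45 cells were treated 4 h at 37 °C with a 6-point dilution series (typically 10 μM to 3 nM; final 0.5% DMSO). Phospho-c-MET (pY1230/1234/1235) in lysates was measured by capture ELISA with HRP read-out at 450 nm. IC50 came from a four-parameter fit of percent of DMSO control.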

Ron = target: T2, Ron (Homo sapiens, UniProt Q04912); assay: Ron kinase assay (Invitrogen Z′-LYTE kinase assay platform); format: biochemical; details: Z′-LYTE kinase assay at Invitrogen, ATP concentration of 100 μM
T2 construct: purchased Invitrogen
Protocol: (§1) The activities of exemplary compounds of the present invention against Ron and c-Met determined at Invitrogen using the Z′-LYTE™ kinase assay platform are shown in Table 1: A, IC50≦0.1 μM; B, 0.1 μM<IC50≦1 μM; C, 1 μM<IC50≦10 μM; D, IC50>10 μM. The assays were conducted at an ATP concentration of 100 μM. The Example # of Table 1 corresponds to the compound example number as illustrated in the Examples section.

c-Met = target: T3, c-Met (Homo sapiens, UniProt P08581); assay: c-Met kinase assay (Invitrogen Z′-LYTE kinase assay platform); format: biochemical; details: Z′-LYTE kinase assay at Invitrogen, ATP concentration of 100 μM
T3 construct: purchased Invitrogen
Protocol: as §1

MKN45 cells = assay: MKN45 cell proliferation assay (CellTiter-Glo); format: cell-based; details: MKN45 cell line, 3 days incubation, at least duplicate experiments, read-out: Prolif. IC50
Outline: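 MKN45 cells (5000/well, RPMI + 10% FCS) plated overnight, then exposed to 8-point dilution series, typically 10 μM to 0.6 nM, in 0.1% DMSO for 3 days at 37 °C. CellTiter-Glo luminescence as % of DMSO control; IC50 from four-parameter fit, at least duplicate experiments.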

T2 sequence (Q04912 25-1400): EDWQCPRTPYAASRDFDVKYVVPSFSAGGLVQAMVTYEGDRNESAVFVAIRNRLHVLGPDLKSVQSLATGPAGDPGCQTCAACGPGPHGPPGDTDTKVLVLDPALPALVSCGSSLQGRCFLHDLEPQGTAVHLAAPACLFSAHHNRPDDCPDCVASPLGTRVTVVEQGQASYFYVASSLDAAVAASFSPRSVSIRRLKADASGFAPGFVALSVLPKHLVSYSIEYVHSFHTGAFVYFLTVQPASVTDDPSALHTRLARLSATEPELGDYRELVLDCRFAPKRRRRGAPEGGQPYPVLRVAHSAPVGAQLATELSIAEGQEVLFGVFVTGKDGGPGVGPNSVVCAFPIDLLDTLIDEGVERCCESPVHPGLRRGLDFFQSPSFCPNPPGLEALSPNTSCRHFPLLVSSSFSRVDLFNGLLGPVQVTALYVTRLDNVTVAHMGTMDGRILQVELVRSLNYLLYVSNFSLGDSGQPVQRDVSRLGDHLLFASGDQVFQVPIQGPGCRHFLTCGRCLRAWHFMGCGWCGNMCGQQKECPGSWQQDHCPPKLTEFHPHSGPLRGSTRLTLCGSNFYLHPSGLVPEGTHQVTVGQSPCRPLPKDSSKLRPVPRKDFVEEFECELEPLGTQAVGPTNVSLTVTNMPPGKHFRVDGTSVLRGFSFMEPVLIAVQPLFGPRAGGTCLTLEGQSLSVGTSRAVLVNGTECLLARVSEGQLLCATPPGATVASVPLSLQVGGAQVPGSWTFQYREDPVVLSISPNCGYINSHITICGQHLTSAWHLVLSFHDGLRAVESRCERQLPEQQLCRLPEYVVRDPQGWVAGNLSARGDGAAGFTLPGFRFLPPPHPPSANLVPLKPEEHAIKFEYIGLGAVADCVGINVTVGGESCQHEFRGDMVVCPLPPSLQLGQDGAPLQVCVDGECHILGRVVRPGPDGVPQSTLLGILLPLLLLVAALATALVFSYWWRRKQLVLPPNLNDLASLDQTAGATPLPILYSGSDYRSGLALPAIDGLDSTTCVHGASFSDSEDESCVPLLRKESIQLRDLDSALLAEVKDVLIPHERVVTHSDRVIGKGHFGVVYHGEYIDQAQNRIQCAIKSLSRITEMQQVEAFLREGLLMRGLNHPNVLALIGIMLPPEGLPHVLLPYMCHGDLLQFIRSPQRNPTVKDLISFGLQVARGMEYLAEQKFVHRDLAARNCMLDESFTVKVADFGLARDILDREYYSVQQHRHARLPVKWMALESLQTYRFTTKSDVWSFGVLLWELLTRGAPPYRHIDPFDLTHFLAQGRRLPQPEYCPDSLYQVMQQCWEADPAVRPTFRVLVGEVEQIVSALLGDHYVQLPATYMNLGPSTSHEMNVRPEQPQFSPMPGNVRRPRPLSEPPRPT
T1 sequence (P08581 25-1390): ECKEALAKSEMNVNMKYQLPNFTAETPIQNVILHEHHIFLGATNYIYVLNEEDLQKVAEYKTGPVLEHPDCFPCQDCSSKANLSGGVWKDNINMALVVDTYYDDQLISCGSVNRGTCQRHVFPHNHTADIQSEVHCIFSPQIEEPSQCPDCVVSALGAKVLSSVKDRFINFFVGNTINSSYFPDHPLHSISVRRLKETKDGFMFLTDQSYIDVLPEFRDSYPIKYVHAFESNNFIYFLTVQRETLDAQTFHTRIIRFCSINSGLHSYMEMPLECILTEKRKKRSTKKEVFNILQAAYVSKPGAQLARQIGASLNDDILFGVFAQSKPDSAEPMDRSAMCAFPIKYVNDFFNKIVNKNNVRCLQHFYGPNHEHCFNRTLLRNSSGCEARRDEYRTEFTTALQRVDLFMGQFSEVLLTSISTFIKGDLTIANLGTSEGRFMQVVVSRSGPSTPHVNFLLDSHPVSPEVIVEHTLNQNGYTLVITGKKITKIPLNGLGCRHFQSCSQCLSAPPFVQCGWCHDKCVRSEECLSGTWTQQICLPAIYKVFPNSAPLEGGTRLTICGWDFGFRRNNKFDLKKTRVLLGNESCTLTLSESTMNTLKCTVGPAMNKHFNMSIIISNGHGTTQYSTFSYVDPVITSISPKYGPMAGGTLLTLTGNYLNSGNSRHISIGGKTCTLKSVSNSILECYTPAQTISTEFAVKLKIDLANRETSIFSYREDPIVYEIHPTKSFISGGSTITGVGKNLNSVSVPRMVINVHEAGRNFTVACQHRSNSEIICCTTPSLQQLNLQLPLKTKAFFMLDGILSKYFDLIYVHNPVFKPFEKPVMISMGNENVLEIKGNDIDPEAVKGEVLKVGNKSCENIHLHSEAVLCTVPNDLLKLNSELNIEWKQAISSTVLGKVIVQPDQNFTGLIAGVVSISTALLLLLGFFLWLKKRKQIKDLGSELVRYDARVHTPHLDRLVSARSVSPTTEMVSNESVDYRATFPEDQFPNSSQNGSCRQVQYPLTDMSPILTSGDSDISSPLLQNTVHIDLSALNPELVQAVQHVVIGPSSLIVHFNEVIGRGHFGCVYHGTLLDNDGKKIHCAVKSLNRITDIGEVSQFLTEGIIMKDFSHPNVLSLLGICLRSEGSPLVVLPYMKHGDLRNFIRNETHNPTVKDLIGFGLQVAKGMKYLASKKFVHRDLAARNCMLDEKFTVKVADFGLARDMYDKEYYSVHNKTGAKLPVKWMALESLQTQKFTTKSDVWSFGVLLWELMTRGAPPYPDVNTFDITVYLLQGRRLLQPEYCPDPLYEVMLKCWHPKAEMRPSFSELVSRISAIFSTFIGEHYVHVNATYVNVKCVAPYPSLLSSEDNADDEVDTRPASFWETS
T3 sequence (P08581 25-1390): as above

IC50 (phosphorylated c-MET) [µM]	IC50 (Ron) [µM]	IC50 (c-Met) [µM]	IC50 (MKN45 cells; Homo sapiens, MKN-45, 72 h) [µM]	IC50 (MKN45 cells) [µM]	Compound
≤ 0.1	1 to 10	≤ 0.1	≤ 0.1		C[C@H](c1c(Cl)ccc(F)c1Cl)c1c[nH]c2ncc(-c3cnn(CCO)c3)cc12 [Example 70, 2-(4-{3-[(S)-1-(2,6-Dichloro-3-fluorophenyl)ethyl]-1H-pyrrolo[2,3-b]-pyridin-5-yl}pyrazol-1-yl)ethanol]
≤ 0.1			0.1 to 1		C[C@H](c1c(Cl)ccc(F)c1Cl)c1c[nH]c2ncc(C3=CCCN(C(N)=O)C3)cc12 [Example 67, 5-{3-[(S)-1-(2,6-Dichloro-3-fluorophenyl)ethyl]-1H-pyrrolo[2,3-b]pyridin-5-yl}-3,6-dihydro-2H-pyridine-1-carboxamide]
≤ 0.1			≤ 0.1		C[C@H](c1c(Cl)ccc(F)c1Cl)c1c[nH]c2ncc(-c3cnn(CC(N)=O)c3)cc12 [Example 77, 2-(4-{3-[(S)-1-(2,6-Dichloro-3-fluorophenyl)ethyl]-1H-pyrrolo[2,3-b]-pyridin-5-yl}-pyrazol-1-yl)-acetamide]
≤ 0.1			≤ 0.1		CNC(=O)Cn1cc(-c2cnc3[nH]cc([C@H](C)c4c(Cl)ccc(F)c4Cl)c3c2)cn1 [Example 76, 2-(4-{3-[(S)-1-(2,6-Dichloro-3-fluorophenyl)ethyl]-1H-pyrrolo[2,3-b]-pyridin-5-yl}-pyrazol-1-yl)-N-methylacetamide]
≤ 0.1			0.1 to 1		CC(=O)N1CC(n2cc(-c3cnc4[nH]cc(C(C)c5c(Cl)ccc(F)c5Cl)c4c3)cn2)C1 (centres unmarked) [Example 58, 1-[3-(4-{3-[1-(2,6-Dichloro-3-fluorophenyl)-ethyl]-1H-pyrrolo[2,3-b]pyridin-5-yl}-pyrazol-1-yl)-azetidin-1-yl]-ethanone]
≤ 0.1			0.1 to 1		CNC(=O)C(C)(C)n1cc(-c2cnc3[nH]cc(C(C)c4c(Cl)ccc(F)c4Cl)c3c2)cn1 (centres unmarked) [Example 62, 2-(4-{3-[1-(2,6-Dichloro-3-fluorophenyl)ethyl]-1H-pyrrolo[2,3-b]pyridin-5-yl}-pyrazol-1-yl)-N-methylisobutyramide]
≤ 0.1			0.1 to 1		C[C@H](c1c(Cl)ccc(F)c1Cl)c1c[nH]c2ncc(-c3ccc(C(=O)N4CCNCC4)cc3)cc12 [Example 69, (4-{3-[(S)-1-(2,6-Dichloro-3-fluorophenyl)ethyl]-1H-pyrrolo[2,3-b]pyridin-5-yl}phenyl)piperazin-1-ylmethanone]
	0.1 to 1	≤ 0.1		≤ 0.1	CC(c1c(Cl)ccc(F)c1Cl)c1c[nH]c2ncc(-c3cnn(C4CCN(C=O)CC4)c3)cc12 (centres unmarked) [Example 71, 4-(4-{3-[1-(2,6-Dichloro-3-fluorophenyl)ethyl]-1H-pyrrolo[2,3-b]pyridin-5-yl}-pyrazol-1-yl)-piperidine-1-carbaldehyde]
≤ 0.1			0.1 to 1		C[C@H](c1c(Cl)ccc(F)c1Cl)c1c[nH]c2ncc(-c3cnn(C(C)(C)CO)c3)cc12 [Example 85, 2-(4-{3-[(S)-1-(2,6-Dichloro-3-fluorophenyl)ethyl]-1H-pyrrolo[2,3-b]-pyridin-5-yl}-pyrazol-1-yl)-2-methylpropan-1-ol]

Further lines, the molecule ahead of its results:

Compound	IC50 (phosphorylated c-MET) [µM]	IC50 (Ron) [µM]	IC50 (c-Met) [µM]	IC50 (MKN45 cells; Homo sapiens, MKN-45, 72 h) [µM]	IC50 (MKN45 cells) [µM]
CC(c1c(Cl)cccc1Cl)c1c[nH]c2ncc(-c3cnn(C4CCNCC4)c3)cc12 (centres unmarked) [Example 1, 3-[1-(2,6-Dichlorophenyl)ethyl]-5-(1-piperidin-4-yl-1H-pyrazol-4-yl)-1H-pyrrolo[2,3-b]pyridine]	≤ 0.1	≤ 0.1	≤ 0.1	0.1 to 1	
CC(c1c(Cl)ccc(F)c1Cl)c1c[nH]c2ncc(-c3cnn(C4CCNCC4)c3)cc12 (centres unmarked) [Example 2, 3-[1-(2,6-Dichloro-3-fluorophenyl)ethyl]-5-(1-piperidin-4-yl-1H-pyrazol-4-yl)-1H-pyrrolo[2,3-b]pyridine]	≤ 0.1	≤ 0.1	≤ 0.1	≤ 0.1	
CC(c1c(Cl)ccc(F)c1Cl)c1c[nH]c2ncc(-c3cnn(C4CCN(C=O)CC4)c3)cc12 (centres unmarked) [Example 47, 4-(4-{3-[1-(2,6-Dichloro-3-fluorophenyl)ethyl]-1H-pyrrolo[2,3-b]pyridin-5-yl}-pyrazol-1-yl)-piperidine-1-carbaldehyde]	≤ 0.1			≤ 0.1	
CC(c1c(Cl)ccc(F)c1Cl)c1c[nH]c2ncc(-c3ccc(C(=O)N4CCCC4)cc3)cc12 (centres unmarked) [Example 4, (4-{3-[1-(2,6-Dichloro-3-fluorophenyl)ethyl]-1H-pyrrolo[2,3-b]pyridin-5-yl}phenyl)pyrrolidin-1-ylmethanone]	0.1 to 1			0.1 to 1	
COCCNC(=O)c1ccc(-c2cnc3[nH]cc(C(C)c4c(Cl)ccc(F)c4Cl)c3c2)cc1 (centres unmarked) [Example 6, 4-{3-[1-(2,6-Dichloro-3-fluorophenyl)ethyl]-1H-pyrrolo[2,3-b]pyridin-5-yl}-N-(2-methoxyethyl)benzamide]	0.1 to 1			1 to 10	
CC(c1c(Cl)ccc(F)c1Cl)c1c[nH]c2ncc(-c3ccccc3)cc12 (centres unmarked) [Example 19, 3-[1-(2,6-Dichloro-3-fluorophenyl)ethyl]-5-phenyl-1H-pyrrolo[2,3-b]-pyridine]	1 to 10			> 10	
CNC(=O)N1CCC(n2cc(-c3cnc4[nH]cc(C(C)c5c(Cl)ccc(F)c5Cl)c4c3)cn2)CC1 (centres unmarked) [Example 51, 4-(4-{3-[1-(2,6-Dichloro-3-fluorophenyl)ethyl]-1H-pyrrolo[2,3-b]pyridin-5-yl}-pyrazol-1-yl)-piperidine-1-carboxylic acid methylamide]	≤ 0.1			≤ 0.1	
CC(c1c(Cl)ccc(F)c1Cl)c1c[nH]c2ncc(-c3ccc(C(=O)N4CCN(C)CC4)cc3)cc12 (centres unmarked) [Example 15, (4-{3-[1-(2,6-Dichloro-3-fluorophenyl)ethyl]-1H-pyrrolo[2,3-b]pyridin-5-yl}phenyl)-(4-methylpiperazin-1-yl)methanone]	≤ 0.1			0.1 to 1	
CC(c1c(Cl)ccc(F)c1Cl)c1c[nH]c2ncc(-c3ccc(C(=O)N4CCOCC4)cc3)cc12 (centres unmarked) [Example 13, (4-{3-[1-(2,6-Dichloro-3-fluorophenyl)ethyl]-1H-pyrrolo[2,3-b]pyridin-5-yl}phenyl)morpholin-4-ylmethanone]	0.1 to 1			0.1 to 1	
CC(c1c(Cl)ccc(F)c1Cl)c1c[nH]c2ncc(-c3ccc(C(=O)NCCN(C)C)cc3)cc12 (centres unmarked) [Example 20, 4-{3-[1-(2,6-Dichloro-3-fluorophenyl)ethyl]-1H-pyrrolo[2,3-b]pyridin-5-yl}-N-(2-dimethylaminoethyl)benzamide]	0.1 to 1			0.1 to 1	
CC(c1c(Cl)ccc(F)c1Cl)c1c[nH]c2ncc(-c3ccc(C(=O)NCCO)cc3)cc12 (centres unmarked) [Example 24, 4-{3-[1-(2,6-Dichloro-3-fluorophenyl)ethyl]-1H-pyrrolo[2,3-b]pyridin-5-yl}-N-(2-hydroxyethyl)benzamide]	0.1 to 1			0.1 to 1	
